Test results from patent US8278072B1, “Method for synthesis of sialylated products using reversible sialylation” (Health Research, Inc., priority 2007, dated 2012).

Target: T1, ST6Gal I (Cloned rat liver) (Rattus norvegicus, UniProt P13721)
T1 construct: purchased Calbiochem
T1 sequence (P13721 1-403): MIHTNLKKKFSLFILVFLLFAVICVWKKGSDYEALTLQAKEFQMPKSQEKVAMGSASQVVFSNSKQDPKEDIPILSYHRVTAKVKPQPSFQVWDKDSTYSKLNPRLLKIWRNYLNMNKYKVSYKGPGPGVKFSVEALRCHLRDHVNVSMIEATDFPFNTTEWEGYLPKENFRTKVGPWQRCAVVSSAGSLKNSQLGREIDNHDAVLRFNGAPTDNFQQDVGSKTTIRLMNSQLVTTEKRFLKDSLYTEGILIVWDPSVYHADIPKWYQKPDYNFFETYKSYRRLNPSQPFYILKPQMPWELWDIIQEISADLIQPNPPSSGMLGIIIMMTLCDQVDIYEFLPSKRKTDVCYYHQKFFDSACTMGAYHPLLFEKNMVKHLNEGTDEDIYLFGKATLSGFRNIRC
Assay: Forward (direct) sialyltransferase activity, ST6Gal-I
Format: biochemical
Settings: donor CMP-[9-3H]NeuAc, acceptor Galβ1,4GlcNAcβ-O-Bn
Experimental: FIG. 5. Effect of 5′-nucleotides on direct sialyltransferase activity (panel a) and reverse sialylation (panel b). a. Varying concentrations of 5′-CDP or 5′-CMP were added to 100 mM acceptor (specified below), 0.15 mM CMP-[9-^3H]NeuAc and either ST3Gal-II (0.2 mU), ST3Gal-III (0.5 mU) or ST6Gal-I (0.2 mU) for 4 h at 37° C. Products were separated using Sep-Pak C18 method. ST3Gal-III activity was measured using acceptor 4-O-MeGalβ1,4GlcNAcβ-O-Bn in the presence of 5′-CDP (●) and 5′-CMP (◯). ST6Gal-I activity was measured using Gal β1,4GlcNAcβ-O-Bn in the presence of 5′-CDP (▴) and 5′-CMP (Δ). ST3Gal-II using D-Fucβ1,3GalNAcα-O-Bn in the presence of 5′-CDP (▪) and 5′-CMP (□). b) Reverse sialylation by ST3Gal-II was measured in reaction mixtures containing 0.2 mM [9-^3H] [3], 7 mM 5′-CMP, ST3Gal-II (2 mU), D-Fucβ1,3GalNAcα-OBn (3.0 mM) and varying doses of either 5′-CDP (▴), 5′-UMP (◯) or 2-deoxy 5′-CMP (●) for 4 hours at 37° C. Reaction product ([9-^3H]NeuAcα2,3DFucβ1,3 GalNAcα-O-Bn) was isolated using Sep-Pak C18 method. In some runs, where was absent, the amount of CMP-NeuAc produced was quantified using the Dowex-1 Formate method in the presence of varying doses of 5′-CDP (▪).
Besides pH other distinctions were also observed between forward and reverse sialylation. In this regard, citrate ions tended to inhibit forward sialylation but not reverse sialylation activity (Table V). For these studies, the effect of citrate on the forward sialylation activity of ST3Gal-I, ST3Gal-II, ST3Gal-III and ST6Gal-I was examined. Reverse sialylation activity of ST3Gal-II was also measured in terms of: i) the formation of CMP-NeuAc from 5′-CMP; and ii) the transfer of NeuAc from this newly synthesized CMP-NeuAc to another O-glycan. From the data (Table V), it is evident that citrate inhibits the direct sialylation activity of all the enzymes mentioned above. However, both the synthesis of CMP-[9-^3H]NeuAc from 5′-CMP as well as the synthesis of [9-^3H]NeuAcα2,3D-Fucβ1,3 GalNAcα-O-Bn using the newly formed CMP-[9-^3H]NeuAc through reverse sialylation of ST3Gal-II was not inhibited by citrate.
The effect of 5′-nucleotides on forward sialylation (FIG. 5a) and reverse sialylation (FIG. 5b) were examined. […] The overall formation of [9-^3H]NeuAcα2,3D-Fucβ1,3 GalNAcα-O-Bn by the two-step reverse sialylation process, however, was inhibited by 5′-CDP and this is consistent with the finding that 5′-CDP inhibits forward sialylation in the second step.

Compound	Effect on forward sialylation activity of ST6Gal-I
Nc1ccn([C@@H]2O[C@H](COP(=O)(O)O)[C@@H](O)[C@H]2O)c(=O)n1 [5′-CMP, Cytidine 5′-monophosphate]	inhibited
Nc1ccn([C@@H]2O[C@H](COP(=O)(O)OP(=O)(O)O)[C@@H](O)[C@H]2O)c(=O)n1 [5′-CDP]	inhibited
